Test [1] concerns the target T1, hTLR9 (Homo sapiens, UniProt Q9NR96, H530R/Q688R).
T1 construct: 293-TLR9-Luc cells contain a genomic copy of the hTLR9 open reading frame and the NF-kappa B-luciferase cassette; expressed in transfected cells; host or cells: 293-TLR9-Luc (stably transfected human embryo kidney 293 cells)
T1 sequence (Q9NR96 26-1032 H530R/Q688R): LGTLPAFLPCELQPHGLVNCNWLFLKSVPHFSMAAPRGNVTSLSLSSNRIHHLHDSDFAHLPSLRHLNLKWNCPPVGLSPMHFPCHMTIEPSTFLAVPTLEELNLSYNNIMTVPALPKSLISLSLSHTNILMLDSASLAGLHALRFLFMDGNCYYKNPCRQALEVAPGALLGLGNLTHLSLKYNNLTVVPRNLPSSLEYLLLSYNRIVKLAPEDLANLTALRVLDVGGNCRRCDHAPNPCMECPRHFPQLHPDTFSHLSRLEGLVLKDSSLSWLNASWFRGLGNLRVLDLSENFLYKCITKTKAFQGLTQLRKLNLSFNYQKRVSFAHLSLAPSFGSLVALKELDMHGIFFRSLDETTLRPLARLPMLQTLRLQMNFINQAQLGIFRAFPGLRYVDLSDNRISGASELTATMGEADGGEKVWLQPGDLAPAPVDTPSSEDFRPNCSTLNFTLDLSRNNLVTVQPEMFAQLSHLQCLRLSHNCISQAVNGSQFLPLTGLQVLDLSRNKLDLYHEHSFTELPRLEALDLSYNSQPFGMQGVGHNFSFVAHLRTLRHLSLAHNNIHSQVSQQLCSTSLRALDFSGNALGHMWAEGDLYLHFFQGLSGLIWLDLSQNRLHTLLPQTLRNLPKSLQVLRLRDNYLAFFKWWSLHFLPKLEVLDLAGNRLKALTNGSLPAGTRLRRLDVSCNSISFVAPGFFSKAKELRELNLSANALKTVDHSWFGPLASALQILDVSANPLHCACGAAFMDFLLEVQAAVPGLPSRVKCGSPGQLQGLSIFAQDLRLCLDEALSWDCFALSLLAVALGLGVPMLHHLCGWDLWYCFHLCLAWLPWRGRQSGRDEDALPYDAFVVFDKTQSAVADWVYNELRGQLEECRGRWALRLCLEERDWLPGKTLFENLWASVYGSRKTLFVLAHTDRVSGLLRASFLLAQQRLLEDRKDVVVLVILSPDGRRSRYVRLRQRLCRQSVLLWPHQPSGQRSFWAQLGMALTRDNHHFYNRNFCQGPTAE
The experiment in a line: NF-kappa B luciferase activation in 293T cells transiently transfected with hTLR9. Conditions: hTLR9-transfected 293T cells, positive control for transfection. The format is cell-based. Here is the method: Cells used for transfections were 293T (human embryo kidney cells, T-antigen transfected) or 293-TLR9-Luc (stable transfectants, human embryo kidney cells expressing the human TLR9 receptor and containing a genomic NF-kappa B-luciferase cassette).
Transfections were performed in six-well plates. Cells were plated the day before transfection at 4×10^5/well in DMEM+10% FCS.
Constructs: TLR cDNAs were cloned into pcDNA3.1. NF-kappa B activation was measured by using an 5× NF-kappa B-Luciferase construct (Stratagene). Transfection efficiency was determined by using a beta-galactosidase (beta-gal) reporter construct (p beta-Gal-Control, Clontech).
Stimulation was performed 24 h after transfection. Medium of the cells was reduced to 1 ml (without medium change) and cells were stimulated with indicated amounts of R-848, LPS, ODN 8954, 2006 and IL-1 beta for 16 h.
Cell extracts were prepared by lysing the cells in 100 μl reporter lysis buffer using the freeze-thaw method. NF-kappa B stimulation was measured through luciferase activity (Promega). All data were normalized for beta-gal expression. Stimulation indices were calculated in reference to luciferase activity of medium without addition of ODN.
293T cells, stably transfected with a NF-kappa B-luciferase reporter construct, were transiently transfected with plasmids (pcDNA3.1 constructs) coding for full length hTLR2, hTLR7, hTLR8 and hTLR9. […]

The target of test [2] is T1, hTLR9. The experiment in a line: Reconstitution of hTLR9 signaling in 293 fibroblasts (NF-kappa B luciferase, IL-8 ELISA). The format is cell-based. The settings on record: 2006 2 μM, LPS 100 ng/ml, FIG. 10. From the text:
Methods for cloning murine and human TLR9 have been described in pending U.S. patent application Ser. No. 09/954,987, filed Sep. 17, 2001, and published PCT application PCT/US01/29229, the contents of which are incorporated by reference. Human TLR9 cDNA (SEQ ID NO:6, GenBank Accession No. AF245704) and murine TLR9 cDNA (SEQ ID NO:8, GenBank Accession No. AF348140) in pT-Adv vector (from Clontech) were individually cloned into the expression vector pcDNA3.1 (−) from Invitrogen using the EcoRi site. Utilizing a “gain of function” assay it was possible to reconstitute human TLR9 (hTLR9) and murine TLR9 (mTLR9) signaling in CpG-DNA non-responsive human 293 fibroblasts (ATCC, CRL-1573). The expression vectors mentioned above were transfected into 293 fibroblast cells using the calcium phosphate method. […]
Since NF-kappa B activation is central to the IL-1/TLR signal transduction pathway (Medzhitov R et al. (1998) Mol Cell 2:253-258 (1998); Muzio M et al. (1998) J Exp Med 187:2097-101), cells were transfected with hTLR9 or co-transfected with hTLR9 and an NF-kappa B-driven luciferase reporter construct. […] After stimulus with CpG-ODN (2006, 2 μM, […], SEQ ID NO:1), GpC-ODN (2006-GC, 2 μM, […], SEQ ID NO:10), LPS (100 ng/ml) or media, NF-kappa B activation by luciferase readout (8 h, FIG. 10A) or IL-8 production by ELISA (48 h, FIG. 10B) were monitored. […]
On the technique in general: ELISA stands for enzyme-linked immunosorbent assay.

With CpG ODN 2006, the “NF-kappa B activation” value in test [1] is 3 fold. Moreover, the “response of cells expressing hTLR9 (NF-kappa B luciferase 8 h, IL-8 48 h)” value in test [2] is “responded to CpG-DNA”.

The values are drawn from US20060188913A1, “Methods and products for enhancing immune responses using imidazoquinoline compounds” (University of Iowa Research Foundation, priority 2001, published 2006).
